Data taken from patent publication US20260176283A1, “IONIZABLE LIPIDS WITH LINEAR HEAD GROUPS” (Beam Therapeutics Inc., priority 2023, published 2026).
Several values for one entry are separate records, joined by “and”; a condition that tells them apart may be missing. Equal entries are not always repeated.

What was measured:
[1] = LNP characterization of base editor LNP preparations (DLS diameter, PDI, encapsulation efficiency); assay type: physicochemical
Method: (§1) Lipid nanoparticle components are dissolved in 100% ethanol at specified lipid component molar ratios. mRNA encoding an adenine base editor and a chemically-modified sgRNA is dissolved at a mass ratio of 1:1 in 10 mM citrate, 100 mM NaCl, pH 4.0, resulting in a concentration of NA cargo of approximately 0.22 mg/mL. LNP preparations are formulated with molar ratios of either 50% Ionizable Lipid: 38.5% Cholesterol: 1.5% PEG2000-DMG: 10% DSPC or 47.5% Ionizable Lipid: 40% Cholesterol: 2.5% PEG2000-DMG: 10% DSPC both at a total lipid to NA molar ratio of 6.
(§2) LNP preparations are formed by microfluidic mixing of the lipid and NA solutions using a Precision Nanosystems NanoAssemblr Ignite Instrument, according to the manufacturer's protocol. A 3:1 ratio of aqueous to organic solvent is maintained during mixing using differential flow rates. After mixing, LNP preparations are collected, diluted in PBS (approximately 2:1 v/v), and further buffer exchange is conducted using dialysis in PBS at 4° C. for 8 to 24 hours against a 20 kDa filter. After this initial dialysis, each individual LNP preparation is characterized via dynamic light scattering (DLS) to measure size and polydispersity. pKa of a subpopulation of LNP preparations is measured via TNS assay. After dialysis, LNP preparations are sterile filtered using 0.22 micron sterile filter and stored at 4° C. for further use. In some embodiments, LNP preparations may be concentrated using 100 kDa Amicon filters per manufacturer's protocol.
DLS—LNP preparation hydrodynamic diameter and polydispersity index (PDI) is measured using high throughput dynamic light scattering (DLS) (DynaPro plate reader II, Wyatt). LNP preparations are diluted 1×PBS to an appropriate concentration and analyzed.
Concentration of NA is determined by Qubit microRNA kit (for siRNA) or HS RNA kit (for mRNA) per manufacturer's instructions. Encapsulation efficiency is determined by measuring unlysed and lysed LNPs.

ALAS1 target site = experiment: In vivo base editing with ABE mRNA and sgRNA targeting ALAS1; design: species or system Balb/c mice; settings: for Liver Editing A->G (%): formulation ratio 50:38.5:1.5:10, liver, 4 days after dosing; for Quadrecept Editing A->G (%): formulation ratio 50:38.5:1.5:10, quadricep muscle
Method: as §1, §2
Male Balb/C mice aged approximately 8-12 weeks are used in the experiments described herein. Each mouse is temporarily restrained, and LNP preparations are administered IV via tail vein injection. Age-matched mice are also used to administer vehicle (1×PBS) via tail vein injection as a control. Four to six days post-dose, tissues including liver, spleen, heart and muscle are collected (only liver and muscle (quardracept) are reported). Genomic DNA is isolated and fragmented and adapter-ligated using the Nextera DNA Flex Library Prep Kit (Illumina) using the 96-well plate Nextera indexing primers (Illumina), according to the manufacturer's instructions. Library size and concentration is confirmed by Fragment Analyzer (Agilent) and sent to Novogene for whole genome sequencing using an Illumina HiSeq.
For base editing, mRNA encoding an adenine base editor (ABE) and a guide RNA (sgRNA) targeting ALAS1 at 1:1 (mass ratio) are coencapsulated in LNP preparations as described herein. LNP preparations are administrated into Balb/c mice through tail vein injections at concentrations ranging from 0.05 to 3.0 mg/kg total RNA. At 4 days after dosing, mice are euthanized and liver, spleen and bone barrow are harvested. Base editing is determined by performing targeted deep sequencing analysis at the ALAS1 target site using extracted genomic DNA.

[2] = LNP preparation characterization (encapsulation efficiency, DLS size and polydispersity), barcoded screen LNPs; assay type: physicochemical; settings: LNP 47.5% ionizable lipid: 40% cholesterol: 2.5% PEG-2000 DMG: 10% DPSC, N/P 4.5-6; for AVG PDI / AVG Z Dia (nm): DLS
Method: Lipid nanoparticle components were dissolved in 100% ethanol at specified lipid component molar ratios. Nucleic acid (NA) cargo was dissolved in 10 mM citrate, 100 mM NaCl, pH 4.0, resulting in a concentration of NA cargo of approximately 0.22 mg/mL. In some embodiments, NA cargos included both a functional NA and a reporter barcode mixed at mass ratios of 1:10 to 10:1 functional NA to barcode. As described herein, a NA can be a siRNA, an anti-sense, an expressing DNA, or mRNA.
LNP preparations were prepared with 47.5% Ionizable Lipid (e.g., a compound provided herein): 40% cholesterol: 2.5% PEG-2000 DMG: 10% DPSC and an N/P ratio range of 4.5-6. LNP preparations were formed by microfluidic mixing of the lipid and NA solutions using Precision Nanosystems NanoAssemblr Spark or Benchtop series Instruments, according to the manufacturer's protocol.
A ratio of aqueous to organic solvent of approximately 2:1 or 3:1 was maintained during mixing using differential flow rates. After mixing, LNP preparations were collected, diluted in phosphate buffer saline (PBS) or Tris-buffered saline (TBS) (approximately 1:1 v/v). Further buffer exchange was conducted using dialysis in PBS or TBS at 4° C. for 4 to 24 hours against a 20 kDa filter. After this initial dialysis, each individual LNP preparation may be characterized via dynamic light scattering (DLS) to measure the size (e.g., diameter) and polydispersity. LNP preparations falling within specific diameter and polydispersity ranges were pooled, and further dialyzed against PBS or TBS at 4° C. for 1 to 4 hours against a 100 kDa dialysis cassette. After the second dialysis, LNP preparations were sterile filtered using 0.22 μm filter and stored at 4° C. for further use.

[3] = Table D LNPs, formulation ratio 50:38.5:1.5:10, ABE mRNA/ALAS1 sgRNA
[4] = Table C LNPs, formulation ratio 47.5:40:2.5:10, ABE mRNA/ALAS1 sgRNA

Row | Compound | Diameter (nm) [1, 3] | EE (%) [1, 3] | PDI (%) [1, 3] | AVG EE(%) [2] [%] | AVG PDI [2] | AVG Z Dia (nm) [2] [nm] | Diameter (nm) [1, 4] [nm] | EE (%) [1, 4] [%] | PDI (%) [1, 4] [%] | Liver Editing A->G (%) (ALAS1 target site; dose 3 MPK IV) | Quadrecept Editing A->G (%) (ALAS1 target site; dose 3 MPK IV) | also measured
1 | C=CCCCCCCC(CCCCCCC=C)OC(=O)CCCCCC(=O)OCC(COC(=O)CCCCCC(=O)OC(CCCCCCC=C)CCCCCCC=C)COC(=O)CCCN1CCCC1 [Compound (4), 1-Heptadeca-1,16-dien-9-yl-7-[2-({[7-(heptadeca-1,16-dien-9-yloxy)-7-oxoheptanoyl]oxy}methyl)-3-{[4-(pyrrolidin-1-yl)butanoyl]oxy}propyl] heptanedioate] | 72.1 nm | 99.03% | 11% | – | – | – | – | – | – | 64.7 | 4.16 | –
2 | C=CCCCCCC(CCCCCC=C)OC(=O)CCCCCC(=O)OCC(COC(=O)CCCCCC(=O)OC(CCCCCC=C)CCCCCC=C)COC(=O)CCCN1CCCC1 [Compound (9), 1-[2-({[7-Oxo-7-(pentadeca-1,14-dien-8-yloxy)heptanoyl]oxy}methyl)-3-{[4-(pyrrolidin-1-yl)butanoyl]oxy}propyl] 7-pentadeca-1,14-dien-8-yl heptanedioate] | 74.1 nm and 75.6 nm and 89.9 nm and 85.5 nm | 98.77% and 98.4% and 98.5% and 98.1% | 12.2% and 9.7% and 8.1% and 9.8% | – | – | – | – | – | – | – | – | Liver Editing A->G (%) (ALAS1 target site; dose 1.5 MPK IV): 90.8%; Quadrecept Editing A->G (%) (ALAS1 target site; dose 1.5 MPK IV): 8.22%
3 | C=CCCCCCC(CCCCCC=C)OC(=O)CCCCCCC(=O)OCC(COC(=O)CCCCCCC(=O)OC(CCCCCC=C)CCCCCC=C)COC(=O)CCCN1CCCC1 [Compound (10), 1-[2-({[8-Oxo-8-(pentadeca-1,14-dien-8-yloxy)octanoyl]oxy}methyl)-3-{[4-(pyrrolidin-1-yl)butanoyl]oxy}propyl] 8-pentadeca-1,14-dien-8-yl octanedioate] | 71.6 nm | 98.66% | 11% | – | – | – | – | – | – | 75.62 | 3.6 | –
4 | CC/C=C\CCCC(CCC/C=C\CC)OC(=O)CCCCCCC(=O)OCC(COC(=O)CCCCCCC(=O)OC(CCC/C=C\CC)CCC/C=C\CC)COC(=O)CCCN1CCCC1 [Compound (13), 1-{2-[({8-Oxo-8-[(3Z,12Z)-pentadeca-3,12-dien-8-yloxy]octanoyl}oxy)methyl]-3-{[4-(pyrrolidin-1-yl)butanoyl]oxy}propyl} 8-(3Z,12Z)-pentadeca-3,12-dien-8-yl octanedioate] | 79.7 nm | 96.75% | 27.9% | – | – | – | – | – | – | – | 0.37 | –
5 | CC/C=C\CCCC(CCC/C=C\CC)OC(=O)CCCCCC(=O)OCC(COC(=O)CCCCCC(=O)OC(CCC/C=C\CC)CCC/C=C\CC)COC(=O)CCCN1CCCC1 [Compound (14), 1-{2-[({7-Oxo-7-[(3Z,12Z)-pentadeca-3,12-dien-8-yloxy]heptanoyl}oxy)methyl]-3-{[4-(pyrrolidin-1-yl)butanoyl]oxy}propyl} 7-(3Z,12Z)-pentadeca-3,12-dien-8-yl heptanedioate] | 74.2 nm and 87.2 nm and 88.8 nm and 111.4 nm and 90.2 nm and 83.6 nm | 98.94% and 98.27% and 98.68% and 98.67% and 97.86% and 97.95% | 11.6% and 9.6% and 11.5% and 8% and 11.4% and 10.2% | – | – | – | – | – | – | – | – | –
6 | C=CCCCC(CCCC=C)COC(=O)CCCCC(=O)OCC(COC(=O)CCCCC(=O)OCC(CCCC=C)CCCC=C)COC(=O)CCCN1CCCC1 [Compound (19), 1-(2-{[(6-Oxo-6-{[2-(pent-4-en-1-yl)hept-6-en-1-yl]oxy}hexanoyl)oxy]methyl}-3-{[4-(pyrrolidin-1-yl)butanoyl]oxy}propyl) 6-[2-(pent-4-en-1-yl)hept-6-en-1-yl] hexanedioate] | – | – | – | 98.2 | 0.08 | 130.75 | 123 | 57.3 | 9.9 | – | – | –

Now from value to compound, other results behind:

Row | Diameter (nm) [1, 3] | EE (%) [1, 3] | PDI (%) [1, 3] | AVG EE(%) [2] [%] | AVG PDI [2] | AVG Z Dia (nm) [2] [nm] | Diameter (nm) [1, 4] [nm] | EE (%) [1, 4] [%] | PDI (%) [1, 4] [%] | Compound | Liver Editing A->G (%) (ALAS1 target site; dose 3 MPK IV) | Quadrecept Editing A->G (%) (ALAS1 target site; dose 3 MPK IV) | also measured
7 | 83.2 nm | 74.33% | 18.7% | – | – | – | – | – | – | C=CCCCCCC(CCCCCC=C)OC(=O)CCCCC(=O)OCC(COC(=O)CCCCC(=O)OC(CCCCCC=C)CCCCCC=C)COC(=O)CCCN1CCCC1 [Compound (11), 1-[2-({[6-Oxo-6-(pentadeca-1,14-dien-8-yloxy)hexanoyl]oxy}methyl)-3-{[4-(pyrrolidin-1-yl)butanoyl]oxy}propyl]6-pentadeca-1,14-dien-8-yl hexanedioate] | 17.19 | 0.11 | –
8 | – | – | – | – | – | – | 153.73 | 25 | 8.2 | O=C(CCCCC(=O)OC(CCCCCC(F)(F)F)CCCCCC(F)(F)F)OCC(COC(=O)CCCCC(=O)OC(CCCCCC(F)(F)F)CCCCCC(F)(F)F)COC(=O)CCCN1CCCC1 [Compound (20), 1-(1,1,1,13,13,13-Hexafluorotridecan-7-yl)6-{2-[({6-[(1,1,1,13,13,13-hexafluorotridecan-7-yl)oxy]-6-oxohexanoyl}oxy)methyl]-3-{[4-(pyrrolidin-1-yl)butanoyl]oxy}propyl} hexanedioate] | – | – | –
9 | – | – | – | 88.1 | 0.07 | 90.80 | 90.8 | 88.09 | 6.8 | C=CCCCCCC(CCCCCC=C)OC(=O)CCCCCC(=O)OCCCC(CCCOC(=O)CCCCCC(=O)OC(CCCCCC=C)CCCCCC=C)OC(=O)CCCN1CCCC1 [Compound (22), O1-[7-[7-(1-hept-6-enyloct-7-enoxy)-7-oxo-heptanoyl]oxy-4-(4-pyrrolidin-1-ylbutanoyloxy)heptyl] O7-(1-hept-6-enyloct-7-enyl) heptanedioate] | – | – | –
10 | – | – | – | 90.2 | 0.13 | 117.63 | – | – | – | CC/C=C\CCCC(CCC/C=C\CC)COC(=O)CCCCC(=O)OCC(COC(=O)CCCCC(=O)OCC(CCC/C=C\CC)CCC/C=C\CC)COC(=O)CCCN1CCCC1 [Compound (24), 1-(6Z)-2-[(4Z)-Hept-4-en-1-yl]non-6-en-1-yl6-(2-{[(6-{[(6Z)-2-[(4Z)-hept-4-en-1-yl]non-6-en-1-yl]oxy}-6-oxohexanoyl)oxy]methyl}-3-{[4-(pyrrolidin-1-yl)butanoyl]oxy}propyl) hexanedioate] | – | – | –
